From EPA's ToxValDB 9.5 come the findings set out here.

For data set [1] the following is noted: for NOAEL: subchronic.
Data set [2] concerns Rattus norvegicus. To be noted: for LD50: acute, mortality.
Data set [3] concerns Oryctolagus sp. To be noted: reproduction developmental.
Data set [4] has as its system Pontoscolex corethrurus. Particulars: for LC50: acute, mortality.
Data set [5] has as its system Daphnia magna. To be noted: for LC50: acute, mortality.
Data set [6] has as its system Plant. Particulars: not reported; seedling emergence.
Data set [7] relates to Pleurozium sp. Particulars: acute; duration: 72 hours; growth.
The test system of data set [8] is Tagia sp. To be noted: for LC50: acute.
Data set [9] deals with Bovidae. Particulars: subchronic; duration: 56 days; oral; diet; F; no effects.
Data set [10] deals with Apis mellifera. Particulars: acute, mortality.
The test system of data set [11] is Cyprinus carpio. Particulars: acute; duration: 96 hours; mortality.
For data set [12], the system named is Homo sapiens. Particulars: clinical; duration: 15 days; inhalation; clinical signs.
Data set [13] concerns Lymnaea stagnalis. Particulars: chronic/long-term; duration: 50 days.
In data set [14] the test system is Gallus gallus. Particulars: for LEL: subchronic, oral, diet, no effects.
The test system of data set [15] is Bibionidae. Particulars: chronic/long-term; duration: 28 days; seedling emergence.
Data set [16] deals with Meleagris sp. To be noted: for LEL: subchronic, duration: 42 days, oral, feed, no effects.
Data set [17] relates to Oncorhynchus mykiss. Particulars: acute; duration: 96 hours; mortality.
Data set [18] concerns Sus scrofa.
For data set [19], the system named is Folsomia candida. To be noted: chronic/long-term; duration: 28 days; mortality.
For data set [20], the system named is Hypoaspis aculeifer. To be noted: chronic/long-term; duration: 14 days; mortality.
Data set [21] deals with Typhlodromus pyri. The experiment in a line: LR50; higher = less toxic. Particulars: acute; duration: 7 days; mortality.
The mark [22] stands for this setting: subchronic, duration: 42 days, oral, diet, M/F, Not specified, no effects.

The structures appear in SMILES notation. Converted amounts (≈) assume the structure as drawn. “And” between values parts separate entries of the source, which are not always exact repeats. Identical values can stand only once. A value given as a limit tells only on which side of the number the result lay.

The LOAEL is the lowest dose or exposure tested at which an adverse effect was seen. In general, NOAEL refers to the highest tested level that showed no adverse finding.

Take `CCOCCC(OCC)OCC` [1,1,3-Triethoxypropane]: the LOAEL was 9.5 mg/kg-day in data set [1] (repeat dose other) and 69 mg/kg-day in [2] (subchronic, M, hematological).
For `O=C(O)Cn1cncn1` [1,2,4-Triazole-1-acetic acid], the NOAEL in [3] (body weight) is 100 mg/kg-day; in data set [2] (reproduction developmental, body weight), 100 mg/kg-day.
In data set [1] (acute, mortality), `CCCCCCC(C=O)=Cc1ccccc1` [2-(Phenylmethylene)octanal] came in with an LC50 of 0.2 µg/mL (≈ 0.925 µM). In data set [2] (chronic, duration: 14 weeks, oral, diet, M/F, organ weight), this compound came in with an NOAEL of 30 mg/kg-day.
In the case of `CCC(C)c1nccnc1OC` (stereo not drawn) [3-sec-Butyl-2-methoxypyrazine], the LC50 in [4] was 235 mg/kg; in [5] it was 14 µg/mL (≈ 84.2 µM).
As to `O=C(Nc1ccc([N+](=O)[O-])cc1)Nc1ccc([N+](=O)[O-])cc1` [4,4'-Dinitrodiphenylurea], the results for the NOEC in data set [6] and in [7] were 2.9 mg/kg and 0.042 µg/L, respectively. Besides, the LC50 in data set [8] (duration: 14 days, no effects) is > 1000 mg/kg.
In data set [1] (duration: 13 weeks), `CC(=O)CCc1ccc(O)cc1` [4-(4-Hydroxyphenyl)butan-2-one] registered an NOAEL of 280 mg/kg-day. Moreover, the values for the LC50 in data set [4] and in data set [5] were 248 mg/kg and 16.9 µg/mL (≈ 103 µM), respectively.
For `C[C@H]1O[C@H](O[C@H]2[C@H](O)[C@@H](O)[C@@H](O[C@@H]([C@H](O)[C@@H](O)C=O)[C@H](O)CO)O[C@@H]2CO)[C@H](O)[C@@H](O)[C@@H]1N[C@H]1C=C(CO)[C@@H](O)[C@H](O)[C@H]1O` [Acarbose], the LEL in [9] was determined as 350 mg/kg-day.
For the compound `CC(=O)O` [Acetic acid], the NOAEL in [3] (oral, mortality) worked out at 16 mg/kg-day. In addition, the LD50 is > 96 µg/piece in data set [10] (dermal) and > 110 µg/piece in data set [10] (oral, unspecified). Moreover, the LC50 in data set [11] is 43.8 µg/mL (≈ 729 µM); in [8] (mortality), > 1000 mg/kg. In addition, the NOEC in data set [5] (chronic/long-term, duration: 21 days, reproduction) is 22.7 mg/L. The same compound registered an NOAEC in data set [12] of 10 mg/m3.
`O=[N+]([O-])[O-].O=[N+]([O-])[O-].O=[N+]([O-])[O-].[Al+3]` [Aluminum nitrate]: the NOEC in [13] amounted to 0.1 mg/L.
As to `CCCc1ncc(C[n+]2ccccc2C)c(N)n1.Cl.[Cl-]` [Amprolium hydrochloride], in data set [14] (duration: 43 days, M/F, Chicken), the LEL was determined as 625 mg/kg-day. For the same compound, the NOEC in data set [15] turned out to be 101 mg/kg; in [8] (reproductive, reproduction), 100 mg/kg.
On to `CC(C)[C@H]1OC(=O)[C@H](Cc2ccccc2)N(C)C(=O)[C@@H](C(C)C)OC(=O)[C@H](Cc2ccccc2)N(C)C(=O)[C@@H](C(C)C)OC(=O)[C@H](Cc2ccccc2)N(C)C1=O` [Beauvericin], for which the NOAEL in data set [14] (repeat dose other) is 1.22 mg/kg-day and 0.536 mg/kg-day; in [16] (not reported) it was 136 µg/kg-day.
With `Cc1oc2ccccc2c1C` [Benzofuran, 2,3-dimethyl-], the NOAEL in [1] (duration: 90 days) amounted to 0.6 mg/kg-day; in data set [2] (subchronic, duration: 90 days, oral), 0.6 mg/kg-day.
With `O=C(O)c1ccccc1` [Benzoic acid], the NOEC in data set [4] (chronic/long-term, growth) is 384 mg/kg; in data set [19], 143 mg/kg; in data set [20], 1000 mg/kg. Besides, the LC50 in data set [17] is > 9 µg/mL. In addition, the LEL came out at 1500 mg/kg-day in [14] (duration: 36 days, M, Chicken); 1500 mg/kg in [16] (F); 20000 mg/kg-day in data set [18] (repeat dose other, F, Large White x Landrace, clinical chemistry); 10000 mg/kg-day in data set [18] (repeat dose other, oral, diet, Not specified, histopathology: nonneoplastic); 5000 mg/kg-day in data set [18] (setting [22]); 20000 mg/kg-day in [18] (subchronic, duration: 84 days, oral, diet, Not specified, organ weight). Also, the LD50 in data set [2] (oral) is > 1700 mg/kg-day. Besides, the NOAEL was found to be 500 mg/kg-day in [2] (chronic, duration: 2 years, oral, diet, other) and 500 mg/kg-day in data set [2] (chronic, duration: 16 weeks, oral, histopathology: nonneoplastic).
With `C[Se]CCC(O)C(=O)O` (stereo not drawn) [Butanoic acid, 2-hydroxy-4-(methylseleno)-], the LEL in data set [14] (duration: 35 days, M/F) was determined as 5 mg/kg-day; in data set [14] (duration: 42 days, M/F), 5 mg/kg-day; in [16] (M/F, But big 6), 5 mg/kg; in [18] (setting [22]), 5 mg/kg-day.
Consider `[Ca+2].[S-]SSS[S-]` [Calcium polysulfide], for which the LR50 in data set [21] was determined as 113 g/ha. In addition, the LD50 was > 69.8 µg/piece in [10] (duration: 48 hours, oral, unspecified) and 1340 mg/kg-day in data set [2] (oral). For the same compound, the LC50 in [17] was 2.67 µg/mL; in [8] (mortality), > 1000 mg/kg. Besides, the NOAEL in data set [2] (subchronic, duration: 90 days, oral, clinical chemistry) came to 150 mg/kg-day.
